This experiment deals with non-substance dependent individual. In words: Case report: Flumazenil nasal spray before business dinners, control of alcohol intake. The experiment is classed as in vivo. The source says:
As in the co-pending applications, medication sprays are used to accomplish the above noted tasks. any one of several technologies may be used: • 1) A nasal spray applicator affecting the vein endings in the mucosal membranes of the nasal passage; • 2) A mouth spray affecting the buccal mucosal membrane in the mouth area; • 3) A pulmonary inhaler aerosolization into the lungs; • 4) Any other delivery system that provides direct absorption through mucus membranes directly into the blood stream. For example, the nasal spray may be used by an individual to assist in maintaining control of his or her drinking on a frequent or daily basis because they or their loved ones feel their use of alcohol is excessive. The spray will also act as a behavior trigger to assist in reminding the individual or retraining the individual to mind the frequency, amount or setting of intake of alcohol. In this setting of spray-assisted control of alcohol use there is provided a positive reinforcement of successful moderation, and eventually, the spray assist should no longer be needed. From several hours before, and including even while the individual is already drinking, the user of this nasal spray simply squirts one to three doses into each nostril in order to substantially decrease the total consumption of alcohol at any one drinking session. The duration of the effect will vary from individual to individual. The administration of the spray may be repeated as often as one wishes over the period or course of drinking to achieve the desired results, that is, a reduction in the use of alcohol, whether in total amount or in rapidity of alcohol ingestion. Case Report: A non-substance dependent individual ([…]) used this nasal spray by spraying two squirts of the medication “Flumazenil” into each nostril before business dinners on two separate occasions. Without this medication, their usual pattern was the ingestion of one to two martinis before and at the beginning of the meal, followed by one to two glasses of wine during and after the meal.

As to `CCOC(=O)c1ncn2c1CN(C)C(=O)c1cc(F)ccc1-2` [Flumazenil], the “effect of the alcohol on their thinking and feeling” value (two squirts into each nostril before business dinner, each of two occasions, self-reported) is “less of an effect on their thinking and feeling than usual”. Where the note is “two squirts into each nostril before business dinner, each of two occasions, usual pattern without medication one to two glasses of wine”, the “actual intake of wine” value was “less than one glass of wine”. The “actual intake of martini” value (two squirts into each nostril before business dinner, each of two occasions, usual pattern without medication one to two martinis) was “less than one martini”. For the same compound, the “interest in the alcoholic beverages” value (two squirts into each nostril before business dinners, two separate occasions, one individual) is “substantially reduced”.

Values taken from US20060263304A1, “Method of controlling alcohol intake and reversing alcohol effects” (priority 2005, published 2006).
